Data taken from ChEMBL document CHEMBL4000244, “Probing A-form DNA: A fluorescent aminosugar probe and dual recognition by anthraquinone-neomycin conjugates” (Bioorg Med Chem, 2017).
The source made the active and inactive calls. The rule behind the calls is not given here.

Tests used:
[1] = Binding affinity to 5'-CCGCGGGG-3' DNA hairpin assessed as change in fluorescence intensity at 1 uM after 45 mins by fluorescence quenching analysis relative to control
[2] = Binding affinity to 5'-GGGGCCCG-3' DNA hairpin assessed as change in fluorescence intensity at 1 uM after 45 mins by fluorescence quenching analysis relative to control
[3] = Binding affinity to 5'-CCCCGCCC-3' DNA hairpin assessed as change in fluorescence intensity at 1 uM after 45 mins by fluorescence quenching analysis relative to control
[4] = Binding affinity to 5'-CGCGGGCG-3' DNA hairpin assessed as change in fluorescence intensity at 1 uM after 45 mins by fluorescence quenching analysis relative to control
[5] = Binding affinity to 5'-GCGCGCGC-3' DNA hairpin assessed as change in fluorescence intensity at 1 uM after 45 mins by fluorescence quenching analysis relative to control
[6] = Binding affinity to d(G4C4)2 DNA major groove assessed as stabilization of A-from DNA conformation by measuring induction of sharper band at 265 nanometer at drug:DNA molar ratio of 1:1 after 30 mins by CD spectroscopic method
[7] = Binding affinity to 5'-CCGGCCCG-3' DNA hairpin assessed as change in fluorescence intensity at 1 uM after 45 mins by fluorescence quenching analysis relative to control
[8] = Binding affinity to 5'-GCCCCGCG-3' DNA hairpin assessed as change in fluorescence intensity at 1 uM after 45 mins by fluorescence quenching analysis relative to control
[9] = Binding affinity to 5'-CGGCGCCG-3' DNA hairpin assessed as change in fluorescence intensity at 1 uM after 45 mins by fluorescence quenching analysis relative to control
[10] = Binding affinity to 5'-GCGGGGGG-3' DNA hairpin assessed as change in fluorescence intensity at 1 uM after 45 mins by fluorescence quenching analysis relative to control
[11] = Binding affinity to 5'-CCCGCCCG-3' DNA hairpin assessed as change in fluorescence intensity at 1 uM after 45 mins by fluorescence quenching analysis relative to control
[12] = Binding affinity to 5'-CGGCGCGC-3' DNA hairpin assessed as change in fluorescence intensity at 1 uM after 45 mins by fluorescence quenching analysis relative to control
[13] = Binding affinity to 5'-GGGGGCGG-3' DNA hairpin assessed as change in fluorescence intensity at 1 uM after 45 mins by fluorescence quenching analysis relative to control
[14] = Binding affinity to 5'-GCCCCCGC-3' DNA hairpin assessed as change in fluorescence intensity at 1 uM after 45 mins by fluorescence quenching analysis relative to control
[15] = Binding affinity to 5'-GCCCCGGC-3' DNA hairpin assessed as change in fluorescence intensity at 1 uM after 45 mins by fluorescence quenching analysis relative to control
[16] = Binding affinity to 5'-CCCGGGGC-3' DNA hairpin assessed as change in fluorescence intensity at 1 uM after 45 mins by fluorescence quenching analysis relative to control
[17] = Binding affinity to 5'-GCGGCCGC-3' DNA hairpin assessed as change in fluorescence intensity at 1 uM after 45 mins by fluorescence quenching analysis relative to control
[18] = Binding affinity to 5'-CCCGGCCG-3' DNA hairpin assessed as change in fluorescence intensity at 1 uM after 45 mins by fluorescence quenching analysis relative to control
[19] = Binding affinity to 5'-GGCCGGCC-3' DNA hairpin assessed as change in fluorescence intensity at 1 uM after 45 mins by fluorescence quenching analysis relative to control
[20] = Binding affinity to 5'-CCCGCCCC-3' DNA hairpin assessed as change in fluorescence intensity at 1 uM after 45 mins by fluorescence quenching analysis relative to control
[21] = Binding affinity to 5'-GGGCGGCC-3' DNA hairpin assessed as change in fluorescence intensity at 1 uM after 45 mins by fluorescence quenching analysis relative to control
[22] = Binding affinity to 5'-CCCGCCGG-3' DNA hairpin assessed as change in fluorescence intensity at 1 uM after 45 mins by fluorescence quenching analysis relative to control
[23] = Binding affinity to 5'-GGCCGCGC-3' DNA hairpin assessed as change in fluorescence intensity at 1 uM after 45 mins by fluorescence quenching analysis relative to control
[24] = Binding affinity to 5'-CGGCGGGG-3' DNA hairpin assessed as change in fluorescence intensity at 1 uM after 45 mins by fluorescence quenching analysis relative to control
[25] = Binding affinity to 5'-CGGGCGCG-3' DNA hairpin assessed as change in fluorescence intensity at 1 uM after 45 mins by fluorescence quenching analysis relative to control
[26] = Binding affinity to 5'-GCGCGGGC-3' DNA hairpin assessed as change in fluorescence intensity at 1 uM after 45 mins by fluorescence quenching analysis relative to control
[27] = Binding affinity to 5'-GGCGGGGG-3' DNA hairpin assessed as change in fluorescence intensity at 1 uM after 45 mins by fluorescence quenching analysis relative to control
[28] = Binding affinity to 5'-GCCGGGGG-3' DNA hairpin assessed as change in fluorescence intensity at 1 uM after 45 mins by fluorescence quenching analysis relative to control
[29] = Binding affinity to 5'-GGCGGCCC-3' DNA hairpin assessed as change in fluorescence intensity at 1 uM after 45 mins by fluorescence quenching analysis relative to control
[30] = Binding affinity to 5'-GCCCCGGG-3' DNA hairpin assessed as change in fluorescence intensity at 1 uM after 45 mins by fluorescence quenching analysis relative to control
[31] = Binding affinity to 5'-CGCGGCGC-3' DNA hairpin assessed as change in fluorescence intensity at 1 uM after 45 mins by fluorescence quenching analysis relative to control
[32] = Binding affinity to 5'-GGGCGCCG-3' DNA hairpin assessed as change in fluorescence intensity at 1 uM after 45 mins by fluorescence quenching analysis relative to control
[33] = Binding affinity to 5'-CGGGCCGC-3' DNA hairpin assessed as change in fluorescence intensity at 1 uM after 45 mins by fluorescence quenching analysis relative to control
[34] = Binding affinity to 5'-CGCCGCCG-3' DNA hairpin assessed as change in fluorescence intensity at 1 uM after 45 mins by fluorescence quenching analysis relative to control
[35] = Binding affinity to 5'-GCGGGCGG-3' DNA hairpin assessed as change in fluorescence intensity at 1 uM after 45 mins by fluorescence quenching analysis relative to control
[36] = Binding affinity to 5'-GGGCCGGC-3' DNA hairpin assessed as change in fluorescence intensity at 1 uM after 45 mins by fluorescence quenching analysis relative to control

Activity [1]: 48.6%
Activity [2]: 29.7%
Activity [3]: 45.7%
Activity [4]: 47.5%
Activity [5]: 45.2%
Activity [6]: Active
Activity [7]: 48%
Activity [8]: 36.7%
Activity [9]: 42.9%
Activity [10]: 38.1%
Activity [11]: 46.5%
Activity [12]: 46.2%
Activity [13]: 38.3%
Activity [14]: 23.6%
Activity [15]: 28.6%
Activity [16]: 33.4%
Activity [17]: 54.5%
Activity [18]: 44.5%
Activity [19]: 45%
Activity [20]: 46.7%
Activity [21]: 49.4%
Activity [22]: 50.9%
Activity [23]: 39.6%
Activity [24]: 50.8%
Activity [25]: 48.7%
Activity [26]: 51.8%
Activity [27]: 41.5%
Activity [28]: 42.5%
Activity [29]: 41.2%
Activity [30]: 28.8%
Activity [31]: 52.5%
Activity [32]: 50.6%
Activity [33]: 52.5%
Activity [34]: 48.1%
Activity [35]: 45%
Activity [36]: 44.4%
SMILES: NCC1O[C@H](O[C@H]2[C@@H](O)[C@H](O[C@@H]3[C@@H](O)[C@H](N)C[C@H](N)[C@H]3O[C@H]3O[C@H](CN)[C@@H](O)[C@H](O)[C@H]3N)O[C@@H]2CSCCNC(=O)CCSCC(=O)Nc2ccc(-c3c4ccc(=O)cc-4oc4cc(O)ccc34)c(C(=O)O)c2)[C@H](N)[C@@H](O)[C@@H]1O (stereo partly specified)
